Like-named read-outs stand apart in the source and are kept apart here.
Legend:
N9 cells = assay: Cannabinoid agonist effects on microglial (N9) activation: TNF-α and NO release; type: cell-based, murine; details: JWH-015 5 μM
Description: (§1) FIG. 3 is a block graph showing cannabinoid agonist effects on microglial (N9) activation. Cultured microglial cells were incubated with 100 ng/mL LPS (LPS), a combination of IFN-γ (100 U/mL) and CD-40L (2 μg/mL), or a combination of Aβ1-42 (1 μM) and CD-40L (2 μg/mL) and co-treated with JWH-015 (5 μM). Anti-CB2 siRNA was added to cells, abolishing the ability of JWH-015 to reduce LPS-induced cytokine release (n=3, **p<0.05). ELISA analysis of microglial cell release of (A) TNF-α and (B) NO was measured and mean levels per mg of total protein shown.
Cannabinoid receptors are expressed on microglia and regulate microglial function. As such, cannabinoid regulation of CD40 activation of microglial was investigated. N9 cells, transfected for 18 hr with specific murine CB2 targeting siRNA (100 nM), were treated for 4 hr with lipopolysaccharid (LPS), a positive control of microglia activation.

[1] = test system: mouse primary microglial cells; assay: TNF-α secretion by primary microglial cells stimulated with IFN-γ/CD40L or Aβ1-42/CD40L (ELISA); type: cell-based; details: 24 hr, presence of JWH-015
Description: as §1
To examine the functional consequences of CB2 agonist treatment on CD40 expression, mouse primary microglial cells were stimulated with either IFN-γ/CD40L protein (Polazzi, E., A. Contestabile, Reciprocal interactions between microglia and neurons: from survival to neuropathology. Rev. Neurosci., 2002. 13(3): 221-242; Facchinetti, F., et al., Cannabinoids ablate release of TNFalpha in rat microglial cells stimulated with lypopolysaccharide. Glia, 2003. 41(2): 161-168; Walter, L., et al., Nonpsychotropic cannabinoid receptors regulate microglial cell migration. J. Neurosci. 2003. 23(4):1398-405) or Aβ1-42/CD40L protein in the presence or absence of JWH-015 for 24 hr. […] After 3 hr, the amount of phagocytosed Aβ1-42 peptide was determined by quantitative immunoblotting experiments, seen in FIG. 4. […]

[2] = test system: mouse primary microglial cells; assay: Microglial phagocytosis of Aβ1-42 / Cy3-Aβ1-42 with CD40L (phagocytosis assay, quantitative immunoblotting); type: cell-based
Description: FIG. 4 is a graph showing CB2 stimulation modulates microglial phagocytic function. Mouse primary microglial cells were seeded at 5×10^5 cells/well and treated with 3 μM Cy3™-Aβ1-42 with CD-40L protein (2.5 μg/mL), JWH-015 (5 μM) or both JWH-015 and CD-40L. Aβ mean band densities are represented as ratios to β-actin+/−SD (n=3 for each condition).
To examine the functional consequences of CB2 agonist treatment on CD40 expression, mouse primary microglial cells were stimulated with either IFN-γ/CD40L protein (Polazzi, E., A. Contestabile, Reciprocal interactions between microglia and neurons: from survival to neuropathology. Rev. Neurosci., 2002. 13(3): 221-242; Facchinetti, F., et al., Cannabinoids ablate release of TNFalpha in rat microglial cells stimulated with lypopolysaccharide. Glia, 2003. 41(2): 161-168; Walter, L., et al., Nonpsychotropic cannabinoid receptors regulate microglial cell migration. J. Neurosci. 2003. 23(4):1398-405) or Aβ1-42/CD40L protein in the presence or absence of JWH-015 for 24 hr. […] The canonical microglial function in the CNS is thought to be phagocytosis, given that IFN-γ and CD40 signaling are maturation agents that oppose this phagocytic function. Murine primary microglial cultures were exposed to 3 μM of Aβ1-42 (for immunoblotting) or Cy3™-Aβ1-42 (for phagocytosis assay) in the presence or absence of CD40L protein or CD40L protein/JWH-015. After 3 hr, the amount of phagocytosed Aβ1-42 peptide was determined by quantitative immunoblotting experiments, seen in FIG. 4. […] CD40 ligation decreased microglial phagocytosis compared to controls, while CB2 agonist treatment alone increased phagocytosis compared to control. The presence of JWH-015 rescued microglial phagocytosis of Cy3-Aβ1-42 following CD40L treatment.

[3] = test system: primary cultured microglial cells; type: cell-based, murine
Description: Primary cultured microglial cells (1×10^5 cells/well in 24-well tissue-culture plates) were treated with FITC-tagged Aβ1-42 (300 nM, pre-aggregated for 24 h at 37° C. in complete medium for 60 mm in the absence (control) or presence of nicotine ([…]). In addition, in parallel 24-well tissue-culture plates, microglial cells were incubated at […] with the same treatment above. Cell supernatants and lysates were analyzed for (A) extracellular and (B) cell associated FITC-Aβ using a fluorometer.
Concentration-response and time-course functions for microglial phagocytosis (cellular uptake) of Aβ1-42 peptide were then characterized. […] To fully characterize these effects, primary microglial cells cultured in 24-well tissue-culture plates (1×10^5/well) were treated for 0, 15, 30, 60, 120, and 180 mm with “aged” FITC tagged Aβ1-42 peptide at 300 nM in the presence or absence of nicotine (0.1-10 μM), THC (0.01-10 μM), and their combination. The microglia were then administered nicotine (0.1-10 μM), THC (0.01-10 μM) and a combination. In addition, cannabinoid antagonists, AM 251 (CB1) and AM 281 […] (0.01-10 μM), cannabinoid agonists, ACEA (CB1) and JHW 015 (CB2) (0.01-10 μM), and nicotinic receptor antagonists, mecamylamine (α4β2) and α-bungorotoxin (α 7) (0.01-10 μM) were used in challenge experiments to determine receptor specificity. For fluorescence analysis, the cells were then washed 5 times with ice-cold PBS to remove the extracellular Aβ, and fixed in 4% paraformaldehyde. The cells were mounted and viewed under an Olympus IX71/IX51 fluorscence microscope equipped with a digital camera system. Image Pro software was used to quantify fluorescence signals, using a minimum of 5 random fields. For fluorometric analysis, microglial cells were treated in parallel, rinsing the cells 3 times with medium and the cells lysed. Extracellular and cell associated FITC tagged Aβ was quantified using an MFX 96-well microplate fluorometer (Molecular Devices, MDS, Inc., Sunnyvale, Calif.) with an emission wavelength of 538 nm and an excitation wavelength of 485 nm. A standard curve from 0 nM to 500 nM of FITC-tagged Aβ was run for each plate. The total cellular protein of all groups was quantified using the Bio-Rad protein assay. In addition, in parallel 24-well tissue-culture plates, microglial cells was incubated at 4° C. with FITC-conjugated Aβ with or without various combinations of CD40L as controls for non-specifically incorporated Aβ. Microglial cells was then rinsed 3 times in Aβ-free complete medium, and the media was exchanged with fresh Aβ-free complete medium for 10 min both to allow for removal of non-incorporated Aβ and to promote concentration of the Aβ into phagosomes. The mean fluorescence values for each sample at 37° C. and 4° C. at the indicated time points were determined by fluorometic analysis. Relative fold change values were calculated as: (mean fluorescence value for each sample at 37° C./mean fluorescence value for each sample at 4° C.). In this manner, both extracellular and cell associated FITC-labeled Aβ were quantified.
For phagocytosis experiments, an important concern is the possibility of extracellular association of Aβ with microglial cell membrane. To address this issue, microglial cells was rinsed in Aβ-free complete medium, and media was exchanged with fresh Aβ-medium for 10 mm both to allow for removal of non-specifically incorporated Aβ and to promote concentration of the Aβ into phagosomes. Microglial cells were further cultured in parallel 24-well plates incubated at 4° C. with FITC-tagged Aβ at the same time points in the presence or absence of the appropriate treatment as control for non-specifically incorporated Aβ.

microglial cells [4] = assay: LPS-induced TNF-α release in cultured microglial cells (ELISA); type: cell-based, murine
Description: Cultured microglial cells were plated in 24-well tissue-culture plates (Costar, Cambridge, Mass.), using minimum essential media supplemented with 5% fetal bovine serum, at […] cells per well. […] After pretreatment the cells were stimulated with LPS (100 ng/mL) for 4 hrs. Cell-free supernatants were collected and stored at −70° C. until analysis. The TNF-α level in the supernatants were examined using ELISA kits (R&D Systems) in strict accordance with the manufacturers' protocols. Cell lysates were also prepared and the Bio-Rad protein assay (Hercules, Calif.) was performed to measure total cellular protein. Results are shown as mean pg of TNF-α per mg of total cellular protein (+1-SEM).
Murine primary culture microglial cells were isolated from newborn mouse cerebral cortices under sterile conditions and kept at 4° C. prior to mechanical dissociation. Cells were plated in 75 cm^2 flasks in RPMI medium supplemented with 5% fetal calf serum, 2 mM glutamine, 100 units/mL penicillin, 0.1 μg/mL streptomycin, and 0.05 mM 2-mercaptoethanol and kept for 14 days so only glial cells remain. The microglial cells were isolated by shaking the flasks at 200 rpm. More than 98% of the glial cells remaining stain positive for membrane attack complex-1 (CD-11b, Roche Diagnostics Corp., Indianapolis, Ind.). Additionally, between 85% and 95% of microglial cells usually stain positive for CD45 by fluorescence activated cell sorter (FACS) analysis.
Cell cultured media was collected for measurement of cytokines by commercial cytokine ELISA kits, as described previously. In parallel, cell lysates were prepared for measurement of total cellular protein. Data was represented as ng/mg total cellular protein for each cytokine production.
Cell cultures were treated with nicotinic/THC treatment, as described above. […] Each cytokine was represented as pg of cytokine/mg of total cellular protein. Data was analyzed using ANOVA with post hoc comparison using Bonferroni's or Dunnett's T3 methods as determined by Levene's test for equality of the variances.

Tg2576 transgenic mice = details: mouse, in vivo; cited from earlier work
microglial cells [5] = test system: microglial cells

CCCn1c(C)c(C(=O)c2cccc3ccccc23)c2ccccc21 [JWH-015]
Aβ/CD-40L-induced NO production (N9 cells; Aβ1-42 1 μM, CD-40L 2 μg/mL, FIG. 3(B)): significantly reduced | IFN-γ/CD-40L-induced NO production (N9 cells; IFN-γ 100 U/mL, CD-40L 2 μg/mL, FIG. 3(B)): significantly reduced | LPS-induced TNF-α release (N9 cells; N9 cells, LPS 100 ng/mL 4 hr, FIG. 3(A)): reductions | secretion of TNF-α induced by Aβ1-42/CD40L [1]: significantly reduced | secretion of TNF-α induced by IFN-γ/CD40L [1]: significantly reduced | microglial phagocytosis compared to control ([2]; CB2 agonist treatment alone, 3 μM Aβ1-42, 3 hr): increased | microglial phagocytosis of Cy3-Aβ1-42 following CD40L treatment ([2]; JWH-015 5 μM with CD40L protein, 3 hr): rescued | CD40L-mediated impairment of microglial phagocytosis of Aβ1-42 (band density ratio of Aβ to β-actin) ([2]; Western immunoblotting, parallel experiment): significant attenuation | Aβ levels (Aβ band densities compared to β-actin) ([2]; quantitative immunoblotting, FIG. 4): significantly reduced

CCCCCc1cc(O)c2c(c1)OC(C)(C)[C@@H]1CCC(C)=C[C@@H]21 [THC, Δ^9-tetrahydrocannabinol]
cell-associated FITC-Aβ1-42 ([3]; THC 5 μM): increasing | extracellular FITC-Aβ1-42 remaining in the supernatant ([3]; THC 5 μM): markedly decreased | receptor mediating the effect on microglial phagocytosis of Aβ ([3]; challenge experiments with receptor antagonists/agonists): cannabinoid CB2 receptors

CNC1(C)C2CCC(C2)C1(C)C (centres unmarked) [mecamylamine]
prevention of the ACh and nicotine inhibition of LPS-induced TNF-α release (microglial cells [4]): prevented

CN1CCCC1c1cccnc1 (centres unmarked) [nicotine]
cell-associated FITC-Aβ1-42 [3]: increasing | extracellular FITC-Aβ1-42 remaining in the supernatant [3]: markedly decreased | microglial phagocytosis of Aβ1-42 peptide [3]: enhanced | receptor mediating the effect on microglial phagocytosis of Aβ [3]: α7 nicotinic receptors | LPS-induced TNF-α release (microglial cells [4]): inhibited | reduction in insoluble Aβ1-40 and Aβ1-42 peptides (Tg2576 transgenic mice): ~80% | microglial-released IL-1β (microglial cells [5]): effectively suppress | microglial-released IL-6 (microglial cells [5]): effectively suppress | microglial-released TNF-α (microglial cells [5]): effectively suppress

α-bungarotoxin
prevention of the ACh and nicotine inhibition of LPS-induced TNF-α release (microglial cells [4]): prevented

From US20100267733A1, “Synergistic Modulation of Microglial Activation by Nicotine and THC” (UNIVERSITY OF SOUTH FLORIDA, priority 2007, published 2010)
